According to patent publication US20210212934A1, “METHODS FOR PROVIDING LONG-LASTING ANESTHETIC EFFECT USING MICROPARTICLES” (priority 2007, published 2021):

Experiment: In vitro lidocaine release from microparticles (dialysis tube, water, 37° C., UV 214 nm)
Format: physicochemical
Description: Microparticle batches in an amount of 100 mg were placed in a dialysis tube (high retention seamless cellulose tubing; 23 mm×15 mm. MW cut-off 05173; Sigma Aldrich). The tube was then placed in a 30 ml glass vial containing 10 ml of deionized ultra-filtered water (Fisher Scientific). Vials were placed in a reciprocating shaking bath (Reciprocating Shaking Bath Model 50; Precision Scientific) with the temperature adjusted to 37° C., and shaking speed of 100 rpm. […] The entire 10 ml of dissolution medium was replaced with fresh medium at each sampling time interval. Dilution of 0.1 ml of the withdrawn sample was diluted to 10 ml of water in clean culture tubes of borosilicate glass (Pyrex). […] Two samples per microparticle batch were measured for drug release and triplicate samples were prepared for each release interval for UV-absorbance.

## CCN(CC)CC(=O)Nc1c(C)cccc1C [lidocaine free base, lidocaine]
In vitro release profile, single peak
  time of peak of release: about one
In vitro release, point 10
  time at which release falls below minimum required level (5.6%): 2.5 days
In vitro release, time point 11
  time at which drug is "exhausted": 3 days
In vitro, % released at peak at about one day
  peak of lidocaine release: 18%
